From ChEMBL document CHEMBL4334512, “Rationally Designed, Conformationally Constrained Inverse Agonists of RORγt-Identification of a Potent, Selective Series with Biologic-Like in Vivo Efficacy” (J Med Chem, 2019)

Experiments:
[1] = Half life in rat liver microsomes; format: ADME, Microsome
[2] = Unbound fraction in human serum; format: ADME, cell-free
[3] = target: T1, Nuclear receptor subfamily 1 group I member 2 (Homo sapiens, UniProt O75469); assay: Activity at PXR (unknown origin)
T1 sequence (O75469 whole entry): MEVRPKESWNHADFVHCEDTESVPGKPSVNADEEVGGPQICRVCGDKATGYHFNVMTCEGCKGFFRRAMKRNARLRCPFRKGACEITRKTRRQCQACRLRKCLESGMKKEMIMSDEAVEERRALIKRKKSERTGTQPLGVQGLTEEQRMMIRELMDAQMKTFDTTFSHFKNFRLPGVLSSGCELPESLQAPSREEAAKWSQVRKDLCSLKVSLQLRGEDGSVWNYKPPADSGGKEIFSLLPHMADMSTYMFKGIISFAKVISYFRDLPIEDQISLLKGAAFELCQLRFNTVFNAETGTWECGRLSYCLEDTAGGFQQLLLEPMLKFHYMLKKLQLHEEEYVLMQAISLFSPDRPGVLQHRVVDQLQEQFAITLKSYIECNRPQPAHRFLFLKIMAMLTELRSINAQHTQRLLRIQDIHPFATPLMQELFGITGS

[4] = system: Mus musculus; assay: Suppression of IL-17F production in mouse stimulated at time -24 hrs with IL-2 and at time 0, 7, and 24 hrs with IL-2/IL-23 mixture dosed with compound at 0 and 24 hrs and measured at 30 hrs
[5] = system: Mus musculus; assay: Suppression of ear thickness in mouse model of IL-23 induced acanthosis model of psoriasis at 30 mg/kg, po BID for 10 days measured every other day relative to anti-IL-23 positive control; format: functional

O=C(N1CC[C@@]2(S(=O)(=O)c3ccc(F)cc3)c3ccc(C(F)(C(F)(F)F)C(F)(F)F)cc3CC[C@@H]12)C1(O)CCS(=O)(=O)CC1
half-life [1]: > 2 h | fraction unbound [2]: 0.011 | IC50 [3]: > 40000 nM | EC50 [4]: 88 nM | Efficacy [5]: 98%
